Reference: the CheMixHub viscosity set

Test: xn = mol fraction of the nth substance listed

O=Cc1ccccc1 + CCc1ccccc1
viscosity [mPa·s], 101 kPa
Conditions | x1 = 0.1197 | x1 = 0.2343 | x1 = 0.3441 | x1 = 0.4494 | x1 = 0.5504 | x1 = 0.6474 | x1 = 0.7407 | x1 = 0.8304 | x1 = 0.9168
303.15 K | 0.6517 | 0.704 | 0.7588 | 0.8174 | 0.882 | 0.9577 | 1.043 | 1.13 | 1.203
308.15 K | 0.6199 | 0.6713 | 0.7283 | 0.7882 | 0.8554 | 0.93 | 1.014 | 1.102 | 1.181
313.15 K | 0.584 | 0.6318 | 0.691 | 0.7573 | 0.8273 | 0.9007 | 0.9837 | 1.07 | 1.158

CCCCCCCCN + COCCO
308.15 K, 101 kPa
Conditions | viscosity [mPa·s]
x2 = 0.1894 | 1.275
x2 = 0.3445 | 1.474
x2 = 0.4739 | 1.614
x2 = 0.5835 | 1.667
x2 = 0.6777 | 1.67
x2 = 0.7592 | 1.609
x2 = 0.8307 | 1.556
x2 = 0.8937 | 1.482
x2 = 0.9498 | 1.379

CC(C)CCCC(C)CCCC(C)CCCCC(C)CCCC(C)CCCC(C)C (stereo not drawn) + CCCCCC
viscosity [mPa·s]
Conditions | 293.15 K | 298.15 K | 313.15 K
100 kPa, x1 = 0.235 | 1.91 | – | 1.36
100 kPa, x1 = 0.511 | 7.76 | – | 4.15
100 kPa, x1 = 0.743 | 17.5 | – | 8.25
101 kPa, x1 = 0.129 | 0.972 | – | 0.739
101 kPa, x1 = 0.268 | 2.45 | – | 1.63
101 kPa, x1 = 0.469 | 6.3 | – | 3.62
101 kPa, x1 = 0.5661 | – | 10.15 | –
101 kPa, x1 = 0.762 | 18.3 | – | 8.84
101.33 kPa, x1 = 0.129 | 0.972 | – | 0.739
101.33 kPa, x1 = 0.268 | 2.45 | – | 1.63
101.33 kPa, x1 = 0.469 | 6.3 | – | 3.62
101.33 kPa, x1 = 0.762 | 18.3 | – | 8.84

[Cl-].[Cl-].[Cl-].[Cl-].[Ge+4] + C1COCCO1
viscosity [mPa·s], 101 kPa
Conditions | x2 = 0.1519 | x2 = 0.3148 | x2 = 0.5071 | x2 = 0.6631 | x2 = 0.8814 | x2 = 0.9218
298.15 K | 0.626 | 0.67 | 0.745 | 0.837 | 0.978 | 1.087
313.15 K | 0.539 | 0.57 | 0.627 | 0.687 | 0.784 | 0.856

CC(C)CCCC(C)CCCC(C)CCCC(C)C (stereo not drawn) + Cc1ccccc1
viscosity [mPa·s], 100 kPa
Conditions | 298.15 K | 313.15 K
x2 = 0.4932 | 2.255 | 1.658
x2 = 0.7449 | 1.263 | 0.974

Cc1ccc(C)cc1 + CCOC(C)=O
Conditions | viscosity [mPa·s]
298.15 K, 101 kPa, x2 = 0.044 | 0.601
298.15 K, 101 kPa, x2 = 0.1503 | 0.572
298.15 K, 101 kPa, x2 = 0.2506 | 0.547
298.15 K, 101 kPa, x2 = 0.3502 | 0.525
298.15 K, 101 kPa, x2 = 0.4374 | 0.507
298.15 K, 101 kPa, x2 = 0.4986 | 0.496
298.15 K, 101 kPa, x2 = 0.5505 | 0.487
298.15 K, 101 kPa, x2 = 0.6473 | 0.472
298.15 K, 101 kPa, x2 = 0.7519 | 0.457
298.15 K, 101 kPa, x2 = 0.8485 | 0.444
298.15 K, 101 kPa, x2 = 0.9426 | 0.434
303.15 K, 101.32 kPa, x2 = 0.0624 | 0.555
303.15 K, 101.32 kPa, x2 = 0.1828 | 0.534
303.15 K, 101.32 kPa, x2 = 0.2938 | 0.516
303.15 K, 101.32 kPa, x2 = 0.4031 | 0.498
303.15 K, 101.32 kPa, x2 = 0.5056 | 0.481
303.15 K, 101.32 kPa, x2 = 0.552 | 0.474
303.15 K, 101.32 kPa, x2 = 0.6041 | 0.465
303.15 K, 101.32 kPa, x2 = 0.6976 | 0.45
303.15 K, 101.32 kPa, x2 = 0.7887 | 0.436
303.15 K, 101.32 kPa, x2 = 0.8757 | 0.423
303.15 K, 101.32 kPa, x2 = 0.9585 | 0.411
308.15 K, 101 kPa, x2 = 0.044 | 0.527
308.15 K, 101 kPa, x2 = 0.1503 | 0.506
308.15 K, 101 kPa, x2 = 0.2506 | 0.488
308.15 K, 101 kPa, x2 = 0.3502 | 0.471
308.15 K, 101 kPa, x2 = 0.4374 | 0.457
308.15 K, 101 kPa, x2 = 0.4986 | 0.448
308.15 K, 101 kPa, x2 = 0.5505 | 0.44
308.15 K, 101 kPa, x2 = 0.6473 | 0.427
308.15 K, 101 kPa, x2 = 0.7519 | 0.414
308.15 K, 101 kPa, x2 = 0.8485 | 0.403
308.15 K, 101 kPa, x2 = 0.9426 | 0.393
313.15 K, 101.32 kPa, x2 = 0.2063 | 0.481
313.15 K, 101.32 kPa, x2 = 0.4077 | 0.45
313.15 K, 101.32 kPa, x2 = 0.5061 | 0.435
313.15 K, 101.32 kPa, x2 = 0.5991 | 0.423
313.15 K, 101.32 kPa, x2 = 0.8016 | 0.395

O=Cc1ccccc1 + Cc1ccccc1
293.15 K, 100 kPa
Conditions | viscosity [mPa·s]
x1 = 0.1053 | 0.652
x1 = 0.2063 | 0.721
x1 = 0.2998 | 0.768
x1 = 0.4022 | 0.844
x1 = 0.4995 | 0.92
x1 = 0.6003 | 1.017
x1 = 0.6939 | 1.108
x1 = 0.8082 | 1.256
x1 = 0.9002 | 1.367

[Cl-].[Cl-].[Cl-].[Cl-].[Ge+4] + CCOC(C)=O
viscosity [mPa·s], 101 kPa
Conditions | x2 = 0.1475 | x2 = 0.3162 | x2 = 0.5235 | x2 = 0.6703 | x2 = 0.8062
293.15 K | 0.576 | 0.535 | 0.5 | 0.481 | 0.469
303.15 K | 0.531 | 0.486 | 0.457 | 0.431 | 0.416
313.15 K | 0.481 | 0.449 | 0.406 | 0.39 | 0.382

O=Cc1ccccc1 + ClCCCl
viscosity [mPa·s], 101 kPa
Conditions | x1 = 0.3909 | x1 = 0.8163 | x1 = 0.8165 | x1 = 0.9064
293.15 K | 1.085 | 1.445 | – | –
303.15 K | – | – | 1.225 | 1.285

CCCCCCCCN + c1ccccc1
303.15 K, 101 kPa
Conditions | viscosity [mPa·s]
x2 = 0.1044 | 1.099
x2 = 0.3007 | 0.9459
x2 = 0.498 | 0.7915
x2 = 0.597 | 0.7318
x2 = 0.6967 | 0.6798
x2 = 0.7998 | 0.6239
x2 = 0.899 | 0.5891

O=Cc1ccccc1 + CC(C)CCO
298.1 K, 101 kPa
Conditions | viscosity [mPa·s]
x1 = 0.1103 | 2.842
x1 = 0.202 | 2.39
x1 = 0.2988 | 2.057
x1 = 0.3333 | 1.959
x1 = 0.4051 | 1.809
x1 = 0.4839 | 1.67
x1 = 0.6101 | 1.51
x1 = 0.6944 | 1.44
x1 = 0.7979 | 1.373
x1 = 0.8987 | 1.34

O=C(O)C(Cl)Cl + [Cl-].[Cl-].[Cl-].[Cl-].[Sn+4]
viscosity [mPa·s], 101 kPa
Conditions | x2 = 0.1 | x2 = 0.2027 | x2 = 0.3211 | x2 = 0.5002 | x2 = 0.805
308.15 K | 3.657 | 2.621 | 2.121 | 1.445 | 0.831
323.15 K | 2.609 | 1.982 | 1.63 | 1.09 | 0.705
